Experimental data reported in patent US11985974B2, “Antimicrobial ferulic acid derivatives and uses thereof” (WISCONSIN ALUMNI RESEARCH FOUNDATION, priority 2014, dated 2024).
“Also recorded” adds a separate entry of the source.

Assays:
[1] = test system: bck1Δ mutant; assay: Sensitivity of individual bck1Δ mutant; type: cell-based, Saccharomyces cerevisiae; conditions: bck1Δ mutant vs control strain
Method: The diferulate compounds tested were synthesized as described by Lu et al. (2012) and resuspended in DMSO. Caspofungin, nikkomycin Z, and MMS were purchased from Sigma-Aldrich. Echinocandin B was a gift from O. Kondo (Chugai Pharmaceuticals, Tokyo, Japan). Micafungin was provided by Astellas Pharma. Diferulates were initially screened at a concentration of 1 mg/mL to determine bioactivity. Cells of Saccharomyces cerevisiae (MATα pdr1Δ::natMX pdr3Δ::KLURA3 snq2Δ::KI.LEU2 can1Δ::STE2pr-Sp_his5 lyp1Δ his3Δ1 leu2Δ0 ura3Δ0 met15Δ0), referred to as the control strain, were grown in 200-μL cultures at 30° C. in YPD with a drug or DMSO control. Plates were read on a TECAN M1000 over a 48-h growth period. The specific growth rate was calculated using GCAT analysis software (https://gcat3-pub.glbrc.org/) (Sato et al. 2014). When presented, IC50 values for growth rate inhibition were calculated from triplicate eight-point dose curves and SigmaPlot 12.0. When presented, error bars are means±SEs of at least three replicates.

[2] = test system: Saccharomyces cerevisiae; assay: Synergy screening; type: cell-based
Method: To test for synergy, a 6×6-dose matrix was initially used to identify potentially synergistic dose combinations, and these points were then confirmed in triplicate. Cultures (200 μL) were grown with combinations of poacic acid (125 μg/mL), caspofungin (12.5 ng/mL), and fluconazole (3.8 μg/mL), and the ODs of relevant single-agent and solvent controls were measured after 24 h. Synergy was determined by comparing actual OD in the presence of compound combinations with an expected value calculated using the multiplicative hypothesis. This method assumes that, in the absence of an interaction, each compound would decrease the OD of the cell culture by the same fraction in the presence of the other compound as it does when applied alone (that is, E=A×B/C, where E is the expected OD, A is OD when compound A is applied alone, B is OD when compound B is applied alone, and C is OD of the control culture (DMSO). In the presence of synergy, the actual OD value is lower than the expected OD. A paired t test was used to confirm statistical significance of this difference in three replicates of the experiment.

[3] = test system: β-1,3-glucan synthesis; assay: In vivo β-1,3-glucan synthesis (14C-glucose incorporation); type: cell-based, Saccharomyces cerevisiae; conditions: 250 μg/mL, 2 h, 25° C.
Method: Inhibition of in vivo β-1,3-glucan synthesis was measured as described previously with slight modification (n=3) (Abe et al. 2003). Yeast cells (his3Δ) were grown in YPD to early log phase at 25° C. The cultured cells were diluted to 1×10^7 cells per 1 mL with 1 mL of YPD medium containing one-tenth the glucose containing 23.125 kBq [14C] glucose (ARC0122; American Radiolabeled Chemicals) and test compounds [250 μg/mL for poacic acid, 4 μg/mL for echinocandin B, 30 mM for hydroxyurea (negative control), or 0.4% (vol/vol) DMSO as a solvent control]. The cells were radiolabeled by culturing at 25° C. for 2 h. The labeled cells were harvested and incubated with 1 N NaOH at 80° C. for 30 min. The insoluble pellets were resuspended in 10 mM Tris·HCl, pH 7.5, containing 5 mg/mL zymolyase 100T (Seikagaku) and incubated at 37° C. for 18 h. […] The flow-through fraction was mixed with scintillation mixture (Ultima Gold; PerkinElmer), and radioactivity was measured by a scintillation counter (LSC-6100; Aloka). The differences in the incorporation rates in samples were normalized by ΔOD600 measured before and after the labeling period.

[4] = test system: yeast cells (his3Δ); assay: Mannoprotein and glucan staining (aniline blue, Con A); type: cell-based, Saccharomyces cerevisiae; conditions: 125 μg/mL, 6 h
Method: β-1,3-Glucan was stained with aniline blue (016-21302; Wako Chemicals) as described previously (Watanabe et al. 2001) with slight modification. Briefly, log-phase yeast cells (his3Δ) were cultured in YPD with poacic acid (125 μg/mL) at 25° C. Then, cells were collected at 0, 2, 4, and 6 h after treatment and stained with aniline blue without fixation as described previously (Okada et al. 2015). Cells mounted on a glass slide were exposed to UV for 30 s to bleach out poacic acid fluorescence before acquiring images. Staining of chitin or mannoproteins with calcofluor white (F3543; Sigma-Aldrich) or Alexa594-ConA (C11253; Life Technologies), respectively, was performed as described previously (Okada et al. 2015). For cell-free glucan staining, yeast glucan (G0331; Tokyo Chemical Industry) was suspended to 0.125% (wt/vol) poacic acid and observed under a fluorescent microscope using a regular DAPI filter set (Carl Zeiss).

For `COc1cc(/C=C/c2cc(/C=C/C(=O)O)cc(OC)c2O)ccc1O` [poacic acid, (E)-4-Hydroxy-3-{2-[(E)-4-hydroxy-3-methoxystyryl]}-5-methoxycinnamic acid], the “reduction in the IC50 compared with the control strain (WT)” value [1] was “six-fold reduction; also recorded: six-fold more sensitive”, the “synergy with methyl methanesulfonate (MMS)” value [2] was “not synergistic” and the synergy with caspofungin ([2]; poacic acid 125 μg/mL + caspofungin 12.5 ng/mL, 24 h, P<0.05) was “significant synergistic effects”. The synergy with fluconazole ([2]; poacic acid 125 μg/mL + fluconazole 3.8 μg/mL, 24 h, P<0.01) was “significant synergy”, the synergy with staurosporine ([2]; poacic acid 125 μg/ml + staurosporine 100 ng/ml) was “synergy” and the “14C-glucose incorporation into the β-1,3-glucan layer” value [3] was “significantly less 14C-glucose incorporation”. The “glucan staining with aniline blue in buds” value [4] was “significantly decreased glucan staining in buds” and the “mannoprotein staining with Con A” value [4] was “does not change mannoprotein staining”.
